Three molecules from ChEMBL document CHEMBL2176906, “Diterpenoids isolated from Sideritis species protect astrocytes against oxidative stress via Nrf2” (J Nat Prod, 2012) can be followed below.

Calls of active or inactive are those of the source. The rule behind the calls is not given here.

A short description of series [1]: Cytotoxicity against human U373MG cells assessed as dye reduction at 1 to 10 uM after 24 hrs by MTT assay. The series is classed as cell-based, U-373MG ATCC. The settings on record: read-out: Activity. A general note: Tetrazolium assays rely on reduction of a dye to a coloured formazan, in cell work by metabolically active cells.
A short description of series [2]: Cytotoxicity against human U373MG cells at 1 to 100 uM after 24 hrs by LDH assay. The series is classed as cell-based. To be noted: u-373mg atcc.
Series [3] in a line: Cytotoxicity against human U373MG cells at 1 to 100 uM after 24 hrs by MTT assay. Type of series: cell-based. To be noted: u-373mg atcc.
For series [4], the target named is T1, Nuclear factor erythroid 2-related factor 2 (Homo sapiens) (UniProt Q16236).
T1 sequence (whole entry): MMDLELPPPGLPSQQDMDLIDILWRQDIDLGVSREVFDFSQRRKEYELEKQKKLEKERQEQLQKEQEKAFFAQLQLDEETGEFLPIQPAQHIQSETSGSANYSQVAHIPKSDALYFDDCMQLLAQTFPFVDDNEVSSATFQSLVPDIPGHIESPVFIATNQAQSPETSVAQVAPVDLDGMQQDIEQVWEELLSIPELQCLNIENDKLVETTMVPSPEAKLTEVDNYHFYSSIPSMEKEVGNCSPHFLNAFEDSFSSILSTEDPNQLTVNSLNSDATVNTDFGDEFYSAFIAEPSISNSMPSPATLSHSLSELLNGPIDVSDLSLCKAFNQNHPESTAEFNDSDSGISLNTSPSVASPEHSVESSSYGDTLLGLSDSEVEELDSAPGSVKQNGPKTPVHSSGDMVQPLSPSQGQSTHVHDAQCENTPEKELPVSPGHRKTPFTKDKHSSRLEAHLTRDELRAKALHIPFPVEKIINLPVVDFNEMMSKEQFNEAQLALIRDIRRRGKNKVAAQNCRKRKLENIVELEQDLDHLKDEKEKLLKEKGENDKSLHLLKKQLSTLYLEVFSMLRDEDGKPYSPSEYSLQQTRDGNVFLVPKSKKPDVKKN
Put plainly: Induction of Nrf2-mediated CAT protein expression in H2O2-stimulated human U373MG cells preincubated at 10 uM for 24 hrs before H2O2 challenge by Western blot method. The series is classed as cell-based. To be noted: U-373MG ATCC. A general note: Immunoblotting shows a protein as a band on a membrane.

Series [5] is described as follows: Antioxidant activity in human U373MG cells assessed as reduction in H2O2-induced ROS production preincubated at 5 to 10 uM for 24 hrs before H2O2 challenge by DCFH-DA assay relative to untreated control. The series is classed as functional, U-373MG ATCC.
In series [6] the target is T1, Nuclear factor erythroid 2-related factor 2 (Homo sapiens). The experiment in a line: Induction of Nrf2-mediated HO-1 protein expression in H2O2-stimulated human U373MG cells preincubated at 10 uM for 24 hrs before H2O2 challenge by Western blot method. Type of series: cell-based. To be noted: U-373MG ATCC.
Series [7] has the same target. The experiment in a line: Induction of Nrf2-mediated HO-1 protein expression in H2O2-stimulated human U373MG cells preincubated at 5 uM for 24 hrs before H2O2 challenge by Western blot method. Type of series: cell-based. To be noted: U-373MG ATCC.
The target is the same in series [8]. Put plainly: Induction of Nrf2-mediated glutathione reductase protein expression in H2O2-stimulated human U373MG cells preincubated at 10 uM for 24 hrs before H2O2 challenge by Western blot method. Type of series: cell-based. The settings on record: U-373MG ATCC.
For series [9] the target is unchanged. The experiment in a line: Induction of Nrf2-mediated glutathione reductase protein expression in H2O2-stimulated human U373MG cells preincubated at 5 uM for 24 hrs before H2O2 challenge by Western blot method. Type of series: cell-based. The settings on record: U-373MG ATCC.
Series [10] relates to U373 MG. Put plainly: Induction of selenium-dependent GPx activity in human U373MG cells assessed as […] per mg protein preincubated at 5 uM for 24 hrs before H2O2 challenge by fluorimetric method (reference value: 14.7 +/- 2.9 nmol/min/mg protein). Type of series: functional, U-373MG ATCC.
The test system of series [11] is U373 MG. Put plainly: Induction of SOD activity in human U373MG cells assessed per mg protein preincubated at 5 uM for 24 hrs before H2O2 challenge by fluorimetric method (reference value: 14.2 +/- 3 UI/mg protein). Type of series: functional, U-373MG ATCC.
Series [12] has as its system U373 MG. Put plainly: Inhibition of AAPH-induced oxidative stress in human U373MG cells assessed as peroxy radical scavenging activity at 10 uM by ORAC assay. The series is classed as functional, cell-based. The settings on record: U-373MG ATCC.
The subject of series [13] is U373 MG. The experiment in a line: Inhibition of AAPH-induced oxidative stress in human U373MG cells assessed as peroxy radical scavenging activity at 5 uM by ORAC assay. The series is classed as functional, cell-based. To be noted: U-373MG ATCC.
In series [14] the test system is U373 MG. The experiment in a line: Inhibition of H2O2-induced oxidative stress in human U373MG cells assessed as GSH/GSSG ratio at 10 uM (reference value: 1.8 +/- 0.1 ). Type of series: functional, U-373MG ATCC.
In series [15] the test system is U373 MG. Put plainly: Inhibition of H2O2-induced oxidative stress in human U373MG cells assessed as GSSG level per mg protein at 10 uM by fluorimetric method (reference value: 9.2 +/- 0.9 nmol/mg protein). Type of series: functional, U-373MG ATCC.
Series [16] deals with U373 MG. The experiment in a line: Inhibition of H2O2-induced oxidative stress in human U373MG cells assessed as GSSG level per mg protein at 5 uM by fluorimetric method (reference value: 9.2 +/- 0.9 nmol/mg protein). Type of series: functional, U-373MG ATCC.
Series [17] deals with U373 MG. The experiment in a line: Induction of ROS production in human U373MG cells at 10 uM after 24 hrs by DCFH-DA assay. The series is classed as functional, cell-based. To be noted: U-373MG ATCC.
For series [18], the system named is U373 MG. Put plainly: Induction of ROS production in human U373MG cells at 5 uM after 24 hrs by DCFH-DA assay. The settings on record: U-373MG ATCC. The series is classed as functional, cell-based.
Series [19] has as its system U-373MG ATCC. Put plainly: Antioxidant activity in human U373MG cells assessed as reduction in H2O2-induced cytotoxicity preincubated for 24 hrs before H2O2 challenge by LDH assay. The series is classed as functional, cell-based.
The subject of series [20] is U-373MG ATCC. The experiment in a line: Antioxidant activity in human U373MG cells assessed as reduction in H2O2-induced cytotoxicity preincubated for 24 hrs before H2O2 challenge by MTT assay. The series is classed as functional, cell-based.
Series [21] can be described thus: Cytotoxicity against human U373MG cells at > 50 uM after 24 hrs by MTT assay. Type of series: cell-based. To be noted: u-373mg atcc.
Series [22] deals with U-373MG ATCC. The experiment in a line: Antioxidant activity in human U373MG cells assessed as reduction in H2O2-induced ROS production preincubated at 10 uM for 24 hrs before H2O2 challenge by DCFH-DA assay. Type of series: functional, cell-based.
The test system of series [23] is U-373MG ATCC. The experiment in a line: Antioxidant activity in human U373MG cells assessed as reduction in H2O2-induced ROS production preincubated at 5 uM for 24 hrs before H2O2 challenge by DCFH-DA assay. Type of series: functional, cell-based.
Series [24] concerns U-373MG ATCC. The experiment in a line: Antioxidant activity in human U373MG cells assessed as reduction in H2O2-induced cytotoxicity preincubated at 5 uM for 24 hrs before H2O2 challenge by MTT assay. Type of series: functional, cell-based.
Series [25] is described as follows: Cytotoxicity against human U373MG cells at > 10 uM after 24 hrs by MTT assay. The series is classed as cell-based. The settings on record: u-373mg atcc.
The test system of series [26] is U-373MG ATCC. The experiment in a line: Antioxidant activity in human U373MG cells assessed as reduction in H2O2-induced cytotoxicity preincubated at 10 uM for 24 hrs before H2O2 challenge by LDH assay. The series is classed as functional, cell-based.
Series [27] concerns U-373MG ATCC. The experiment in a line: Antioxidant activity in human U373MG cells assessed as reduction in H2O2-induced cytotoxicity preincubated at 5 uM for 24 hrs before H2O2 challenge by LDH assay. Type of series: functional, cell-based.
The subject of series [28] is U-373MG ATCC. The experiment in a line: Antioxidant activity in human U373MG cells assessed as reduction in H2O2-induced cytotoxicity preincubated at 10 uM for 24 hrs before H2O2 challenge by MTT assay. Type of series: functional, cell-based.

In the case of `C=CC(=C)CC[C@H]1[C@]2(C)CCC[C@](C)(CO)[C@H]2[C@H](O)C[C@]1(C)O` [ANDALUSOL], the viability at 24 h, up to 10 µM in [1] was found to be 90%. The Activity entry was “Non-toxic” in series [2]; “Non-toxic” in series [3]; 23.9 nmol/min in the series on U373 MG [10]; 24.7 IU in the series on U373 MG [11]; 6.8 nmol in the series with U373 MG [15]; 7 nmol in the series with U373 MG [16]. Moreover, the Activity entry with U-373MG ATCC [19] and in the series with U-373MG ATCC [20] was “Dose-dependent effect” in each case. Also, the result in series [4], in [6], in [7], in series [8] and in series [9] was Active. Moreover, the Ratio turned out to be 1.4 in series [5] and 5.7 in the series on U373 MG [14]. The result with U373 MG [12], in the series on U373 MG [13], with U373 MG [17] and in the series with U373 MG [18] was inactive.

As for `CC1(C)CCC[C@H]2C1=CC[C@H]1C[C@@](C)([C@@H](O)CO)C[C@@H](O)[C@@]12C` [LAGASCATRIOL], the Activity entry was “Toxic” in series [21]; 22.8 nmol/min with U373 MG [10]; 22.8 IU in the series on U373 MG [11]; 7 nmol with U373 MG [15]; 7.1 nmol in the series on U373 MG [16]; “Dose-dependent effect” with U-373MG ATCC [19]. Also, the Activity result in the series on U-373MG ATCC [20] is “Dose-dependent effect”. For the same molecule, the viability at 24 h, up to 10 µM in series [1] came out at 90%. Also, the outcome (in [4]; in series [6]; in series [7]; in [8]; in series [9]; in the series with U-373MG ATCC [22]) was Active. Moreover, in the series with U-373MG ATCC [23], the outcome was Active. Also, the outcome in the series on U373 MG [12], with U373 MG [13], with U373 MG [17] and in the series on U373 MG [18] was inactive. For the same molecule, the Ratio in the series on U373 MG [14] is listed as 4.2.

For the molecule `CC1(C)CCC[C@]2(C)[C@@H]1C[C@H](O)[C@@]13C=C[C@@](CO)(C1)[C@H](O)C[C@@H]23` [CONCHITRIOL], the outcome in the series on U-373MG ATCC [24], in the series on U-373MG ATCC [26], in the series on U-373MG ATCC [27] and with U-373MG ATCC [28] was Active. In addition, in series [1], the viability at 24 h, up to 10 µM was 90%. Also, the Activity result in series [25] is “Toxic”; in the series on U373 MG [10] it was 17.6 nmol/min; with U373 MG [11], 15 IU; with U373 MG [15], 8.6 nmol; in the series with U373 MG [16], 8.9 nmol. Besides, the outcome (in series [4]; with U373 MG [12]; in the series on U373 MG [13]; in the series with U373 MG [17]; in the series with U373 MG [18]) was inactive. The Ratio with U373 MG [14] turned out to be 2.3.
